Measurements: US11253497B2, “Use of derivatives of polyunsaturated fatty acids as medicaments” (Lipopharma Therapeutics, S.L., priority 2009, dated 2022)

Columns and labels:
P19 cells = assay: NMDA-induced neuronal death in P19 cells; format: cell-based; details: NMDA alone 100% death, control without NMDA 0%; negative values = proliferation
α-synuclein = assay: Expression of α-synuclein in neuronal cultures (cells P19); format: cell-based; details: untreated cells 100%
COX-2 = assay: Expression of COX-2 in LPS-stimulated monocytes in culture; format: cell-based, human; details: positive control with LPS 100%
Excerpt: FIG. 5A also presents a drawing showing the COX-2/COX-1 relationship as % of control (Y axis) for the following compounds (X-axis): OOA (2-hydroxy-oleic acid), OLA (182A1), OALA (183A1), OGLA (183A2), OARA (204A1), OEPA (205A1), ODHA (226A1). […] The reduction of this factor is directly related to the anti-inflammatory medication. The compounds are the same as in the left pane.
(§1) Cyclooxygenase (COX) is an enzyme that can bind to membranes, taking certain lipids from there and catalyze its conversion into molecules that can have inflammatory activity. The binding of this enzyme to membrane lipids is due in part to the membrane lipid structure. The increased activity of COX 1 and 2 isoforms has been associated with the etiopathology of a number of inflammatory diseases by […] arachidonic acid metabolism to produce pro-inflammatory lipid mediators. The D-PUFA compounds of the present invention produced a series of cellular signals that alter the metabolism of arachidonic acid and, as a result, they inhibit the activity and expression of COX in monocytes in culture (Table 14 and FIG. 5A). […] For this purpose, C57BL6/J mice were treated with the various derivatives (200 mg/kg, p.o.,) after inducing an inflammatory reaction in them by intraperitoneal injection of 20 μg of bacterial lipopolysaccharide (LPS).
Inhibition of COX-2 expression in monocytes. Percentages of inhibition (compared to the positive control in the presence of LPS, 100%) of COX-2 protein levels (expression) by the various fatty acid derivatives.

[1] = tested on: Spontaneously Hypertensive Rats (SHR); assay: Blood pressure of SHR rats (cuff-tail method); format: in vivo, rat; details: 200 mg/kg day p.o., 30 days, before treatment 214 mmHg
Summary of the method: (§2)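 SHR rats dosed orally at 200 mg/kg day for 30 days against water vehicle. At study end, blood pressure taken non-invasively by tail cuff and apoA-I assessed as gene expression by RT-PCR.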

[2] = tested on: apolipoprotein AI (apoA-I); assay: Levels of apoA-I in SHR rats (RT-PCR); format: in vivo, rat; details: 200 mg/kg day p.o., 30 days, before treatment 100%
Summary of the method: as §2

[3] = tested on: brain cancer cell (glioma) U118; assay: Brain cancer (glioma) U118 cell growth; format: cell-based; details: 72 hours of incubation
Summary of the method: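 Human cells in RPMI 1640 with 10% FBS at 37 °C, 5% CO2, exposed to D-PUFAs or PUFAs, then counted. glioma U118 cells run under the same conditions; values are means of three independent experiments.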

TNF-α = assay: Production of TNF-α in serum of LPS-injected C57BL6/J mice; format: in vivo; details: LPS 20 μg i.p. (100%), 200 mg/kg p.o.
Excerpt: as §1

[4] = Lamellar-to-hexagonal (HII) transition temperature in DEPE model membranes by Differential Scanning Calorimetry; format: physicochemical; details: for Transition temperature (lamellar to HII): DEPE (4 mM), 200 μM compound, series A, control 64.5
Summary of the method: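 Lamellar-to-HII transition temperature of DEPE membranes measured by differential scanning calorimetry, with DEPE:fatty acid at 10:1 mol:mol. Control membranes contained no fatty acid.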

[5] = tested on: breast cancer cells MDA-MB-231; assay: Growth of breast cancer cells MDA-MB-231; format: cell-based; details: 72 hours of incubation
Summary of the method: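 Human cancer cells in RPMI 1640 with 10% FBS at 37 °C, 5% CO2, exposed to D-PUFAs or PUFAs, then counted. Breast MDA-MB-231 cells run under the same conditions; values are means of three independent experiments.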

B6 healthy mice = assay: Radial maze in control animals (B6 healthy mice); format: in vivo; details: 20 mg/kg daily po, 3 months
Experimental: To test the efficacy of the compounds of the present invention to induce neuroregeneration or inhibit neurodegeneration, an animal model of Alzheimer's disease was used. In this model mice develop neurodegeneration because they express a series of mutant proteins that lead to brain damage (Alzh mice). B6 mice were used as healthy animal controls. Both groups of animals were treated for a period of 3 months with vehicle (water) or with various D-PUFA (20 mg/kg, daily po) since they were an age of 3 months. To determine whether cognitive improvement occurred after treatment, animal behaviour was monitored in the radial maze. The animals are kept on restricted diet to have appetite. In a symmetrical 8-arm radial maze, visual marks were placed to facilitate the orientation of the animal and food (15 mg tablet) was put in four of the arms. The time each animal took to complete the exercise, and the number of errors, were measured using a camera attached to a computer system. In this sense, Alzheimer animals have values about 50% higher than healthy animals, both by the time it takes to perform the exercise and by the number of errors made (FIG. 4B). […] In this regard, the effectiveness of the compound 183B1, 205A1, 205B1, 226A1, 226 V1 was also tested, showing improvements in animals with Alzheimer's disease (times of 98, 92, 93, 86 and 89 seconds, respectively). On the other hand, it is also interesting that these same compounds (183B1, 205A1, 205B1, 226A1, 226B1 and 226V1) also produced reductions in the times taken to complete the experiment in control animals (B6 healthy mice) of 8s, 11s, 12s, 18s, 16s and 14s, respectively. Therefore, it may be concluded that these compounds have significant activity against neurodegeneration and in neuroregeneration.

Jurkat cells = assay: Human leukaemia (Jurkat cells); format: cell-based; details: 72 hours
Experimental: (§3) Overall, it may be seen that the series of compounds A and B are the best, so the effectiveness of these series against the development of leukaemia and liver cancer (Tables 9 and 10) was tested.

[6] = Serum cholesterol, triglycerides and glucose in SHR rats (colorimetric); format: in vivo, rat; details: 200 mg/kg daily p.o., 28 days, untreated rats 100%
Summary of the method: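 SHR rats dosed p.o. at 200 mg/kg daily for 28 days; serum cholesterol, triglycerides and glucose measured colorimetrically. Values given as percent of untreated control rats, set at 100%.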

lung cancer cells A549 = assay: Growth of lung cancer cells A549 (IC50); format: cell-based, human; details: 72 hours of incubation
Summary of the method: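 Human A549 lung cancer cells in RPMI 1640 with 10% FBS at 37 °C, 5% CO2, exposed to D-PUFAs or PUFAs, then counted. values are means of three independent experiments.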

[7] = tested on: heterotrimeric Gi1 protein; assay: Binding of heterotrimeric Gi1 protein to model membranes (centrifugation, immunoblotting); details: phosphatidylcholine:phosphatidylethanolamine (6:4) 2 mM phospholipid, 0.1 μM D-PUFA; control 100 ± 5; in % (unit assumed)
Excerpt: The net result is a regulation of cell signalling leading to the reversal of various pathological processes, as shown later. […] The Control is a sample of model membranes in the absence of fatty acids.

3T3 cells = assay: Percentage of total PUFAs in membranes of 3T3 cells treated with fatty acids (gas chromatography); format: cell-based; details: 100 μM, 48 hours, mean ± SEM of four measures, control 32.4 ± 2.1
Excerpt: To perform these experiments, membranes were extracted and total fatty acids were obtained by hydrolysis in basic medium. Methanolic bases of these fatty acids were quantified by gas chromatography. The data shown are averages of four independent measures of PUFA's mass divided by the total fatty acids and expressed as a percentage. It is also shown is standard error of the mean.
The control corresponds to a culture without the presence of added natural or synthetic fatty acids. Cells in their natural form present PUFAs in their membranes, but the presence in the medium of the D-PUFA molecules of the invention increases these levels of PUFAs in the cell membrane.

HepG2 cells = assay: Liver cancer (HepG2 cells); format: cell-based; details: Homo sapiens, HepG2; 72 hours
Experimental: These charts show the antitumor efficacy of the compounds of this invention against the growth of breast cancer cells, brain (glioma), and lung cancer. […] The other experimental conditions are identical to those described in the preceding paragraph.
as §3

With CC/C=C\C/C=C\C/C=C\C/C=C\C/C=C\C/C=C\CC(O)C(=O)[O-].[Na+] (centres unmarked) [226B1] the “Neuronal death (P19 cells) after treatment with NMDA” value (shortened to “Neuronal death (P19 cells)”) (P19 cells) was −222%, the “Expression of α-synuclein” value (α-synuclein) was 31% and the “COX-2 protein levels (expression), percentages of inhibition compared to positive control” value (COX-2) was 37%. For the same compound, the Blood pressure [1] was 186 mm Hg, the “Levels of apoA-I” value [2] was 333% and the IC50 [3] was 196 µM. For the same compound, the “Production of TNF-α in serum” value (TNF-α) was 83%, the Temperature of lamellar-to-hexagonal transition ([4]; DEPE membranes, DEPE:D-PUFA 10:1 (mol:mol)) was 45.1 °C and the IC50 [5] was 195 µM. The “Reduction in the time taken to complete the experiment” value (B6 healthy mice) was 16 s, the IC50 (Jurkat cells) was 175 µM and the “Cholesterol in serum (top number)” value [6] was 59%. For the same compound, the “Glucose in serum (bottom number)” value [6] was 81%, the “Triglycerides in serum (central number)” value [6] was 62% and the IC50 (lung cancer cells A549) was 198 µM.
In the case of CCC=CCC=CCC=CCCCCCCC(O)C(=O)O (centres unmarked) [183A1, 2-hydroxy-9,12,15-octadecatrienoic acid], the “Neuronal death (P19 cells)” value (P19 cells) is reported as −55%, the “Expression of α-synuclein” value (α-synuclein) is reported as 45% and the G protein binding [7] is reported as 328 ± 9. For the same compound, the “COX-2 protein levels (expression), percentages of inhibition compared to positive control” value (COX-2) was 20%, the Blood pressure [1] was 201 mm Hg and the “Levels of apoA-I” value [2] was 134%. For the same compound, the IC50 [3] was 397 µM, the “Production of TNF-α in serum” value (TNF-α) was 70% and the “Percentage of total PUFA” value (3T3 cells) was 42.8 ± 2.2%. For the same compound, the Transition temperature (lamellar to HII) [4] was 51.6 °C, the IC50 ([5]; Homo sapiens, MDA-MB-231) was 380 µM and the IC50 (Jurkat cells; Homo sapiens, Jurkat) was 198 µM. The “Cholesterol in serum (top number)” value [6] was 76%, the “Glucose in serum (bottom number)” value [6] was 87% and the “Triglycerides in serum (central number)” value [6] was 81%. It also gave an IC50 (lung cancer cells A549; Homo sapiens, A549) of 200 µM and an IC50 (HepG2 cells) of 380 µM.
In the case of CCCCCC=CCC=CCCCCCCC(O)C(=O)O (centres unmarked) [182A1, 2-hydroxy-9,12-octadecadienoic acid], the “Neuronal death (P19 cells)” value (P19 cells) is reported as −60%, the “Expression of α-synuclein” value (α-synuclein) is reported as 50% and the G protein binding [7] is reported as 312 ± 12. The “COX-2 protein levels (expression), percentages of inhibition compared to positive control” value (COX-2) was 24%, the Blood pressure [1] was 204 mm Hg and the “Levels of apoA-I” value [2] was 146%. For the same compound, the IC50 [3] was 197 µM, the “Production of TNF-α in serum” value (TNF-α) was 64% and the “Percentage of total PUFA” value (3T3 cells) was 42.3 ± 3.1%. The Transition temperature (lamellar to HII) [4] was 51.8 °C, the IC50 ([5]; Homo sapiens, MDA-MB-231) was 388 µM and the IC50 (Jurkat cells; Homo sapiens, Jurkat) was 713 µM. The “Cholesterol in serum (top number)” value [6] was 78%, the “Glucose in serum (bottom number)” value [6] was 84% and the “Triglycerides in serum (central number)” value [6] was 91%. It also gave an IC50 (lung cancer cells A549; Homo sapiens, A549) of 944 µM and an IC50 (HepG2 cells) of 212 µM.
For CCCCCC=CCC=CCC=CCC=CCCC(O)C(=O)O (centres unmarked) [204A1, 2-hydroxy-5,8,11,14-eicosatetraenoic acid], the “Neuronal death (P19 cells)” value (P19 cells) was −70%, the “Expression of α-synuclein” value (α-synuclein) was 41% and the G protein binding [7] was 385 ± 22. The “COX-2 protein levels (expression), percentages of inhibition compared to positive control” value (COX-2) was 17%, the Blood pressure [1] was 205 mm Hg and the “Levels of apoA-I” value [2] was 131%. The IC50 [3] was 197 µM, the “Production of TNF-α in serum” value (TNF-α) was 24% and the “Percentage of total PUFA” value (3T3 cells) was 45.5 ± 2.9%. The Transition temperature (lamellar to HII) [4] was 49.3 °C, the IC50 ([5]; Homo sapiens, MDA-MB-231) was 381 µM and the IC50 (Jurkat cells; Homo sapiens, Jurkat) was 62 µM. For the same compound, the “Cholesterol in serum (top number)” value [6] was 72%, the “Glucose in serum (bottom number)” value [6] was 85% and the “Triglycerides in serum (central number)” value [6] was 77%. The IC50 (lung cancer cells A549; Homo sapiens, A549) was 243 µM and the IC50 (HepG2 cells) was 192 µM.
For CCCCCC=CCC=CCC=CCCCC(O)C(=O)O (centres unmarked) [183A2, 2-hydroxy-6,9,12-octadecatrienoic acid], the “Neuronal death (P19 cells)” value (P19 cells) was −70%, the “Expression of α-synuclein” value (α-synuclein) was 40% and the G protein binding [7] was 17 ± 357. The “COX-2 protein levels (expression), percentages of inhibition compared to positive control” value (COX-2) was 23%, the Blood pressure [1] was 189 mm Hg and the “Levels of apoA-I” value [2] was 311%. For the same compound, the IC50 [3] was 372 µM, the “Production of TNF-α in serum” value (TNF-α) was 71% and the “Percentage of total PUFA” value (3T3 cells) was 44.0 ± 2.6%. It also gave a Transition temperature (lamellar to HII) [4] of 50.1 °C, an IC50 ([5]; Homo sapiens, MDA-MB-231) of 347 µM and an IC50 (Jurkat cells; Homo sapiens, Jurkat) of 184 µM. For the same compound, the “Cholesterol in serum (top number)” value [6] was 79%, the “Glucose in serum (bottom number)” value [6] was 82% and the “Triglycerides in serum (central number)” value [6] was 78%. For the same compound, the IC50 (lung cancer cells A549; Homo sapiens, A549) was 192 µM and the IC50 (HepG2 cells) was 380 µM.
